Assay results from patent publication US20030125311A1, “Compounds capable of binding with the cytoskeleton” (priority 2002, published 2003).

Tests used:
fetal rat brain neurons = test: Immunocytochemistry of fetal rat brain neuron cultures; format: cell-based; settings: 1 μM for 2 days
Procedure: Primary cultures of E17 fetal neurons are performed according to El-Etr et al. (16). Briefly, this method consists of spreading the dissociated cells (200,000 cells/cm^2) on glass plates covered with poly-1-ornithine and cultured in a completely defined medium in 5% CO2 at 37° C. The culture conditions used permit a practically pure neuron population to be obtained.
24 h after seeding, 1 micromolar pregnenolone (final ethanol concentration 0.01%), or the solvent alone, is added and cultures are continued for 2 days. The cells are fixed in 4% paraformaldehyde, then frozen at −80° C. The cells are duly rehydrated by passages of 5 min in ethanol at concentrations of 100, 90 and 70%. After 2 washings in PBS, for 5 min, the cells are incubated in PBS containing 3% of BSA and 0.1% of Triton X100®, at ambient temperature for 1 h.
After 4 washings in PBS, the cells are incubated at 37° C. for 1 h, then at 4° C. for about 14 h, in the presence of either anti-α-tubulin monoclonal antibody diluted {fraction (1/2,000)}, or anti-MAP2 monoclonal antibody diluted {fraction (1/1,000)}, or anti-double-cortin antiserum diluted 1/300.
After 3 washings in PBS, the secondary antibody is added at ambient temperature, for 45 minutes. […]

[1] = target: fetal rat brain cytosol binding sites of pregnenolone (Rattus norvegicus, UniProt P15146); test: Equilibrium binding of PREG [3H] to fetal brain cytosol; settings: mean±standard error, n=3
Sequence of fetal rat brain cytosol binding sites of pregnenolone (P15146 whole entry): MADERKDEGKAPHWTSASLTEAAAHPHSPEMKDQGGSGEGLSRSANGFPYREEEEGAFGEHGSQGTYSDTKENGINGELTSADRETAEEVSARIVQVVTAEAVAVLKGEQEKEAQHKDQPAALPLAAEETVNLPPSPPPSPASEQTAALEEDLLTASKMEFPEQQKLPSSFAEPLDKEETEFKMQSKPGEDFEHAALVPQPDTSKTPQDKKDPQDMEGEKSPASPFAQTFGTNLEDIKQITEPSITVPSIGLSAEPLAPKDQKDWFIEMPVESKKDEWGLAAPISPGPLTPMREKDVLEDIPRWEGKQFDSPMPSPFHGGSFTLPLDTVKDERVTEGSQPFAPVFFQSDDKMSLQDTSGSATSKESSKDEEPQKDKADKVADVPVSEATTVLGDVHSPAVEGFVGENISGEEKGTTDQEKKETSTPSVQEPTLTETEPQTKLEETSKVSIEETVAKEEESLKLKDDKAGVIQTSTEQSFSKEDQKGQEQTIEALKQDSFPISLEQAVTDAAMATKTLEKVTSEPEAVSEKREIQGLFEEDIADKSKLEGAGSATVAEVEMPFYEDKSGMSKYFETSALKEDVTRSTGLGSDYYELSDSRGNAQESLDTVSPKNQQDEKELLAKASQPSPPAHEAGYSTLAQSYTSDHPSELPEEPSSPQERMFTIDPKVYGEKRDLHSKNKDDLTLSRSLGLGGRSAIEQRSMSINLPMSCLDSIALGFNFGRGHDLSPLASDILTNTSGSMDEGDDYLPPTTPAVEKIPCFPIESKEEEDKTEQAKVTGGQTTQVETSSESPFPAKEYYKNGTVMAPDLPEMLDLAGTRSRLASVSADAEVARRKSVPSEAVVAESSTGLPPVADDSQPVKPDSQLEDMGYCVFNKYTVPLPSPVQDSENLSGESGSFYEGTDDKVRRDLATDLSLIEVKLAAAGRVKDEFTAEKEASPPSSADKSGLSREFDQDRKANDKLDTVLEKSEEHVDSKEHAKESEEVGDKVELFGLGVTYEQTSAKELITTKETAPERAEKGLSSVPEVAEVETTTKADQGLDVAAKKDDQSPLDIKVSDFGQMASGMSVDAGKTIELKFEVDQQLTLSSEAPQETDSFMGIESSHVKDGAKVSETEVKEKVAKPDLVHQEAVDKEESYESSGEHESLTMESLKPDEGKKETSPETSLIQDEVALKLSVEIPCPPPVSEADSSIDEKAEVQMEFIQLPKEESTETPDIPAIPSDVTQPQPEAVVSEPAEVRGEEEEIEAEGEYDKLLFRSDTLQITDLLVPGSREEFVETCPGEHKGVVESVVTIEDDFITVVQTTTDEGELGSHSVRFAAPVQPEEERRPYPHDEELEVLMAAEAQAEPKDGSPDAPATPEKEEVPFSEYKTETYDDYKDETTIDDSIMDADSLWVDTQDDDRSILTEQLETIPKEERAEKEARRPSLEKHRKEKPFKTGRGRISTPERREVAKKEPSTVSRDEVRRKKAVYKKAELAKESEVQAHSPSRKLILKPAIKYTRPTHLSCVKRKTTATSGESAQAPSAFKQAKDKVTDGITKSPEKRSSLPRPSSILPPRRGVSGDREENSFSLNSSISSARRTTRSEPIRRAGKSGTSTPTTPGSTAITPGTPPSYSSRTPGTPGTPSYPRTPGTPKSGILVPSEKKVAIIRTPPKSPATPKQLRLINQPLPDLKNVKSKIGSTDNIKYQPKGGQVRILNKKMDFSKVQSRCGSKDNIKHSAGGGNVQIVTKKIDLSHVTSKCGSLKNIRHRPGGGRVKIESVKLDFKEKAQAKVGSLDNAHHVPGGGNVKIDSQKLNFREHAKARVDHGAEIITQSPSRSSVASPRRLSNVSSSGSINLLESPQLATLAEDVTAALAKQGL
Procedure: Fetal brains are collected, and are rinsed, after the meninges have been removed, with a homogenization buffer at 4° C. [10 mM of Tris-HCl, at pH 8.5, containing 1.5 mM of EDTA, 1 mM of dithiothreitol, 10% of glycerol, Complete®, (a mixture of protease inhibitors, Roche Molecular Biochemical); termed TEDG buffer].
The supernatant is then centrifuged at 100,000 g for 1 h at 4° C. The samples are used immediately for the trials, or are stored in liquid nitrogen until the moment of their use.
Just before the binding trial, each sample is purified with a dextran-carbon suspension, and 2 ml samples of supernatant (purified cytosol) are added to a series of tubes containing 1 to 500 nM PREG [^3H], with or without unlabeled steroid in 1,000-fold excess.
The tubes are incubated at 45° C. for 30 min. The separation of bound and free steroid was carried out on a Sephadex LH-20® (Amersham Pharmacia Biotech) mini-column.
The counting of the radioactivity in the flasks was performed in a liquid scintillation spectrometer with attenuation correction (Tri-Carb 2100 TR®, Packard).
The equilibrium binding data are analyzed with the Mac Ligand program, adapted from Munson and Rodbard (17). […]
The bound steroid is separated by gel filtration on Sephadex LH20® at 0-4° C. The binding constants are determined with the Mac Ligand program.

MAP2-tubulin copolymers = MAP2-tubulin copolymers (Bos taurus, UniProt A0A3Q1NAK9); test: Equilibrium binding of PREG [3H] to MAP2-tubulin copolymers; parameters: species or system calf
Sequence of MAP2-tubulin copolymers (A0A3Q1NAK9 1-1867): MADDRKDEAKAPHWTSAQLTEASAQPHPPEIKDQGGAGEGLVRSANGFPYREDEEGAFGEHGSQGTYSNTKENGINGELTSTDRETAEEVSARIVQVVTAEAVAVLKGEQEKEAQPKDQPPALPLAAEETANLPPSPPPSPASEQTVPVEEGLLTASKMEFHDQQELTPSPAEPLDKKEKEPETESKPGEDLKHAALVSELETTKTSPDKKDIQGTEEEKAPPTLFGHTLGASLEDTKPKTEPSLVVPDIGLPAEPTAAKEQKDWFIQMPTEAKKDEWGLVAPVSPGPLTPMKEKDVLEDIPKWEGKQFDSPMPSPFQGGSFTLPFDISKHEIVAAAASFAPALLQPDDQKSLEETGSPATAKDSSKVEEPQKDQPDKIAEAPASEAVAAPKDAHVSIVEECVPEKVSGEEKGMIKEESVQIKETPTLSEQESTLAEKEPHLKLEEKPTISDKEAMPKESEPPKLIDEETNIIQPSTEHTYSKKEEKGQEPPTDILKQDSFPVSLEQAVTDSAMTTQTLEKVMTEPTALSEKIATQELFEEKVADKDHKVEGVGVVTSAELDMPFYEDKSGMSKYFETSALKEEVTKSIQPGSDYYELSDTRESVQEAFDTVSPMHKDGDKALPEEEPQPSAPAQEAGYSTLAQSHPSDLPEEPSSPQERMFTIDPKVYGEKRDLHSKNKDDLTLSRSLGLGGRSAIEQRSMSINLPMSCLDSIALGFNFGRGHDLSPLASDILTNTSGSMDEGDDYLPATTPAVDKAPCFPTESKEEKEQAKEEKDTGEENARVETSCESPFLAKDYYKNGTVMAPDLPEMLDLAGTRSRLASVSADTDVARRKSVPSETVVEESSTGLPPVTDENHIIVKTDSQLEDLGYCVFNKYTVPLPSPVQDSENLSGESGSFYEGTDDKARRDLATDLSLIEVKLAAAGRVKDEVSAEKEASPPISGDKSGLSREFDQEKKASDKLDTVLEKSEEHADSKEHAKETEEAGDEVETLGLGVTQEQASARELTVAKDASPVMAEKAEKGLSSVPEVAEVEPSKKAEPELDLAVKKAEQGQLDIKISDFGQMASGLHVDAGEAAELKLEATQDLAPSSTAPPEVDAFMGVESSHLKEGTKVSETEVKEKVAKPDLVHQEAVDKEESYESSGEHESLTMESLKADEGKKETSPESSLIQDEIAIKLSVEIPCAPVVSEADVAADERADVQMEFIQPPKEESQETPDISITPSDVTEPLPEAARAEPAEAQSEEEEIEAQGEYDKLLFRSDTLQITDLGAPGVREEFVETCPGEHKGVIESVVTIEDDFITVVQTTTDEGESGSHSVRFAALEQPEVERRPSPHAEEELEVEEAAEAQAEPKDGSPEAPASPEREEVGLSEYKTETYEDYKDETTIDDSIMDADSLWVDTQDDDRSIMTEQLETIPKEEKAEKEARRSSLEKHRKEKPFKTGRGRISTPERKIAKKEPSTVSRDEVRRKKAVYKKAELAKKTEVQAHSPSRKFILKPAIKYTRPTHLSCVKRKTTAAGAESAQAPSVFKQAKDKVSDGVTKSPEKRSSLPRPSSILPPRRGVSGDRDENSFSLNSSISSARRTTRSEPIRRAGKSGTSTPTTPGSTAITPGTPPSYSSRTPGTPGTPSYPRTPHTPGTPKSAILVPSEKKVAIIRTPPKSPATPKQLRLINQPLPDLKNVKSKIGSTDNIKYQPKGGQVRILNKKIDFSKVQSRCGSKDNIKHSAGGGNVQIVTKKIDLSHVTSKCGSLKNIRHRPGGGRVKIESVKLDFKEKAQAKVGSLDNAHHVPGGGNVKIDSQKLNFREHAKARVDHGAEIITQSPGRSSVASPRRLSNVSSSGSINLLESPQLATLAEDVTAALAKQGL
Procedure: The calf tubulin is purified according to the protocol of Weingarten et al. (13), but the step using phosphocellulose is replaced by a cation exchange column chromatography (Fractogel, Merck) (14). The microtubules and the tubulin are prepared in L buffer, supplemented with 1 mM of GTP (buffer A).
(§1) The tau and MAP2 proteins are purified according to the protocol of Fellous et al. (12) by heat denaturation of the microtubules and gel filtration on a column, Sephacryl 300® being used instead of the Ultrogel ACA 34. The tau proteins are then Further purified according to the method of Lindwall and Cole (15).
(§2) Purified calf brain tubulin (90 μg/ml), MAP2 (45 μg/ml) or tau protein (25 μg/ml) is incubated with 100 nM of PREG [^3H], with or without a 1,000-fold excess of non-radioactive PREG.
(§3) The B/U values are reported in FIG. 5 as a function of B in nM, (-∘-) representing equilibrium binding of purified calf brain MAP2, and (-∘-) the equilibrium binding of purified calf brain MAP2 associated with purified calf brain tubulin (for the experimental details, see FIG. 1).

purified calf MAP2 = target: T1, purified calf MAP2 (Bos taurus, UniProt A0A3Q1NAK9); test: Equilibrium binding of PREG [3H] to purified calf MAP2
T1 construct: from tissue; host or cells: calf brain microtubules, heat denaturation and Sephacryl 300 gel filtration
T1 sequence (A0A3Q1NAK9 1-1867): as above
Procedure: as §1, §2, §3

fetal microtubules = fetal microtubules (Rattus norvegicus, UniProt P15146); test: Binding of PREG [3H] to purified fetal rat brain microtubules
Sequence of fetal microtubules (P15146 whole entry): as the sequence (P15146 whole entry) above
Procedure: The microtubules are prepared starting from calf brain or adult or fetal rat brain according to an assembly/disassembly method, as a function of the temperature, in vitro (12).
The binding of PREG [^3H] to microtubules prepared by polymerization/depolymerization cycles was determined.

maximum concentration of binding sites [1]: 1.2±0.1 pmol/mg of protein | Bmax (MAP2-tubulin copolymers): 135 pmol/mg of MAP2 | Kd (MAP2-tubulin copolymers): 44 nM | Bmax (purified calf MAP2): 16 pmol/mg of MAP2 | Kd (purified calf MAP2): 39.2 nM | Bmax (fetal microtubules): 3.7 pmol/mg of protein | Kd (fetal microtubules): 42.9 nM
SMILES: CC(=O)C1CCC2C3CC=C4CC(O)CCC4(C)C3CCC12C (stereo not drawn) [Pregnenolone]
immunolabeling of MAP2 (fetal rat brain neurons): increases the immunolabeling of MAP2 of the cell bodies and induces its extension to close nerve cells | staining with anti-α tubulin or anti-double-cortin antibodies (fetal rat brain neurons): does not show any difference
